ChEMBL document CHEMBL4152194, “Synthesis, molecular modeling studies and evaluation of antifungal activity of a novel series of thiazole derivatives” (Eur J Med Chem, 2018)
In brackets after ≈: the same amount, converted by molar mass.

How the values were obtained:
[1] = tested on: Paracoccidioides brasiliensis; assay: Antifungal activity against Paracoccidioides brasiliensis Pb18 after 7 days by microbroth dilution assay; format: functional; conditions: 168 h
Candida tropicalis = assay: Antifungal activity against Candida tropicalis ATCC 750 after 48 hrs by microbroth dilution assay; format: functional; conditions: ATCC 750, 48 h
Pichia kudriavzevii = assay: Antifungal activity against Candida krusei ATCC 20298 after 48 hrs by microbroth dilution assay; format: functional; conditions: ATCC 20298, 48 h
[2] = tested on: Cryptococcus bacillisporus; assay: Antifungal activity against Cryptococcus gattii ATCC 32608 after 72 hrs by microbroth dilution assay; format: functional; conditions: ATCC 32608, 72 h
Candida albicans = assay: Antifungal activity against Candida albicans ATCC 18804 after 48 hrs by microbroth dilution assay; format: functional; conditions: ATCC 18804, 48 h
Candida parapsilosis = assay: Antifungal activity against Candida parapsilosis ATCC 22019 after 48 hrs by microbroth dilution assay; format: functional; conditions: Lodderomyces parapsilosis, ATCC 22019, 48 h
Cryptococcus neoformans = assay: Antifungal activity against Cryptococcus neoformans ATCC 24067 after 72 hrs by microbroth dilution assay; format: functional; conditions: ATCC 24067, 72 h
HEK293 = assay: Cytotoxicity against human HEK293 cells after 72 hrs by MTT assay; format: cell-based; conditions: HEK293, 72 h
[3] = Cytotoxicity against human HEK293 cells assessed as cell viability at 250 uM after 72 hrs by MTT assay relative to control; format: cell-based; conditions: read-out: Activity

SMILES | MIC [1] | MIC (Candida tropicalis) | MIC (Pichia kudriavzevii) | MIC [2] | MIC (Candida albicans) | MIC (Candida parapsilosis) | MIC (Cryptococcus neoformans) | IC50 (HEK293) | viability at 72 h, 250 µM [3]
COc1cc(/C=C/C(C)=N/Nc2nc(-c3ccc(Cl)cc3)cs2)ccc1O | 62.5 µM (≈ 25 µg/mL) | 250 µM (≈ 100 µg/mL) | 250 µM (≈ 100 µg/mL) | 125 µM (≈ 50 µg/mL) | 250 µM (≈ 100 µg/mL) | 250 µM (≈ 100 µg/mL) | 250 µM (≈ 100 µg/mL) | – | –
CC(C)(C)/C=N/Nc1nc(-c2ccccc2)cs1 | 125 µM (≈ 32.4 µg/mL) | 31.2 µM (≈ 8.09 µg/mL) | 5.8 µM (≈ 1.5 µg/mL) | 1.9 µM (≈ 0.493 µg/mL) | 3.9 µM (≈ 1.01 µg/mL) | 3.9 µM (≈ 1.01 µg/mL) | 1.9 µM (≈ 0.493 µg/mL) | – | –
Clc1ccc(-c2csc(N/N=C/C=C/c3ccccc3)n2)cc1 | > 250 µM | > 250 µM | > 250 µM | > 250 µM | > 250 µM | > 250 µM | > 250 µM | – | –
COc1cc(/C=C/C(C)=N/NC(N)=S)ccc1O | > 250 µM | > 250 µM | > 250 µM | > 250 µM | > 250 µM | > 250 µM | > 250 µM | – | –
C/C(=N\Nc1nc(-c2ccc(Cl)cc2)cs1)c1ccc(N)cc1 | > 250 µM | > 250 µM | > 250 µM | > 250 µM | > 250 µM | > 250 µM | > 250 µM | – | –
COc1ccc(-c2csc(N/N=C(C)/C=C/c3ccc(O)c(OC)c3)n2)cc1 | – | 250 µM (≈ 98.9 µg/mL) | 250 µM (≈ 98.9 µg/mL) | 250 µM (≈ 98.9 µg/mL) | 250 µM (≈ 98.9 µg/mL) | 250 µM (≈ 98.9 µg/mL) | 250 µM (≈ 98.9 µg/mL) | – | –
COc1cc(/C=C/C(C)=N/Nc2nc(-c3ccccc3)cs2)ccc1O | 250 µM (≈ 91.4 µg/mL) | 250 µM (≈ 91.4 µg/mL) | 250 µM (≈ 91.4 µg/mL) | 250 µM (≈ 91.4 µg/mL) | 250 µM (≈ 91.4 µg/mL) | 250 µM (≈ 91.4 µg/mL) | 250 µM (≈ 91.4 µg/mL) | – | –
CC(C)(C)/C=N/NC(N)=S | > 250 µM | > 250 µM | > 250 µM | > 250 µM | > 250 µM | > 250 µM | > 250 µM | – | –
CCC/C(CC)=N/NC(N)=S | > 250 µM | > 250 µM | > 250 µM | > 250 µM | > 250 µM | > 250 µM | > 250 µM | – | –
C[C@@H]1[C@H](O)[C@@H](C)/C=C/C=C/C=C/C=C/C=C/C=C/C=C/[C@H](O[C@@H]2O[C@H](C)[C@@H](O)[C@H](N)[C@@H]2O)C[C@@H]2O[C@](O)(C[C@@H](O)C[C@@H](O)[C@H](O)CC[C@@H](O)C[C@@H](O)CC(=O)O[C@H]1C)C[C@H](O)[C@H]2C(=O)O [AMPHOTERICIN B] | 0.06 µM (≈ 0.0554 µg/mL) | 1.2 µM (≈ 1.11 µg/mL) | 0.5 µM (≈ 0.462 µg/mL) | 0.08 µM (≈ 0.0739 µg/mL) | 0.3 µM (≈ 0.277 µg/mL) | 0.5 µM (≈ 0.462 µg/mL) | 0.09 µM (≈ 0.0832 µg/mL) | 78.6 µM | –
OC(Cn1cncn1)(Cn1cncn1)c1ccc(F)cc1F [FLUCONAZOLE] | – | 6.5 µM (≈ 1.99 µg/mL) | 104 µM (≈ 32 µg/mL) | 12.7 µM (≈ 3.89 µg/mL) | 1.6 µM (≈ 0.49 µg/mL) | 3.2 µM (≈ 0.98 µg/mL) | 6.2 µM (≈ 1.9 µg/mL) | > 250 µM | 99.2%
CCC(C)n1ncn(-c2ccc(N3CCN(c4ccc(OCC5COC(Cn6cncn6)(c6ccc(Cl)cc6Cl)O5)cc4)CC3)cc2)c1=O (configuration not stated) [ITRACONAZOLE] | 0.06 µM (≈ 0.0423 µg/mL) | 0.09 µM (≈ 0.0635 µg/mL) | 0.18 µM (≈ 0.127 µg/mL) | 0.18 µM (≈ 0.127 µg/mL) | 0.7 µM (≈ 0.494 µg/mL) | 0.18 µM (≈ 0.127 µg/mL) | 0.04 µM (≈ 0.0282 µg/mL) | > 250 µM | 90.8%
